In one data set the test system is MDR1. The data set can be described thus: in vitro. Conditions: dog, MDCK-MDR1, pH 7.4.
In a further data set the test system is SMN protein. Briefly: SMN protein assay (MSD) in SMA patient fibroblasts (GM03813). The class given is cell-based, human. Conditions: SMN protein by MSD, SMA patient fibroblasts GM03813, 48 hours. How it is done:
Compounds were tested on spinal muscular atrophy (SMA) patient fibroblasts (GM03813, Coriell) at doses ranging from 2.5 μM to 0.6 nM. 7000 cells/well were seeded in 96-well plates. Compounds were incubated for 48 hours and the cells were lysed with 100 μL of lysis buffer. 20 μL of lysate was used for SMN protein measurement by Mesoscale Discovery (MSD) assay developed by PharmOptima (Michigan). A standard curve prepared with SMN protein ranging from 1 μg/ml to 19.5 pg/ml was used in each MSD plate to calculate the absolute SMN protein amount in each sample.

Another data set relates to SMN FL. The data set can be described thus: Quantitative splicing assay (SMN) in SMA patient fibroblasts (GM03813). Type of data set: cell-based. The following applies: Homo sapiens, Fibroblast; SMA patient fibroblasts GM03813, 24 h, qPCR. How it is done: Spinal muscular atrophy (SMA) patient fibroblasts (GM03813, Coriell) are plated in 96-well plates at 50,000 cells/well. Immediately after plating, cells are dosed with compounds for 24 h at concentrations ranging from 2.5 μM to 0.6 nM (0.1% DMSO). Treated cells are lysed and cDNA synthesized using the Fast Advanced Cells-to-Ct kit (Thermofisher A35378) according to the manufacturer's instructions. 2 μL of each cDNA are used in qPCR reactions. The qPCR reactions are prepared in 384-well plates in 10 μL volume, using TaqMan™ Fast Advanced Master Mix (ThermoFisher; 4444965) with primers and probes shown in the table below. Reactions are run in a Quant Studio 6 qPCR instrument with default settings.

In data set [1] the test system is MDR1-MDCK cell monolayers. Conditions: dog, MDCK-MDR1, 120 min, 5 μM, pH 7.4.
Method: The permeability of compounds is assessed for BBB penetration potential by use of an MDCK-MDR1 assay (Catalog EA203) performed by Absorption Systems, Exton PA.
MDR1-MDCK cell monolayers are grown to confluence on collagen-coated, microporous membranes in 12-well assay plates. The permeability assay buffer is Hanks' balanced salt solution containing 10 mM HEPES and 15 mM glucose at a pH of 7.4. The buffer in the receiver chamber also contained 1% bovine serum albumin. The dosing solution concentration is 5 μM of test article in the assay buffer. Cell monolayers are dosed on the apical side (A-to-B) or basolateral side (B-to-A) and incubated at 37° C. with 5% CO2 in a humidified incubator. Samples are taken from the donor and receiver chambers at 120 minutes. Each determination is performed in duplicate. The flux of lucifer yellow is also measured post-experimentally for each monolayer to ensure no damage is inflicted to the cell monolayers during the flux period. All samples are assayed by LC-MS/MS using electrospray ionization.
Efflux ratio (ER) is defined as Papp (B-to-A)/Papp (A-to-B).
• Column: Waters ACQUITY UPLC BEH Phenyl 30×2.1 mm, 1.7 μm • M.P. Buffer: 25 mM ammonium formate buffer, pH 3.5 • Aqueous Reservoir (A): 90% water, 10% buffer • Organic Reservoir (B): 90% acetonitrile, 10% buffer • Flow Rate: 0.7 mL/minute Gradient Program:
• Total Run Time: 1.00 minute • Autosampler: 2 μL injection volume • Wash1: water/methanol/2-propanol:1/1/1; with 0.2% formic acid • Wash2: 0.1% formic acid in water

SMILES strings stand for the structures.

As a reminder, the Papp A→B is the apparent permeability from the apical to the basolateral side of a cell layer. A lower Papp A→B goes with slow passage. As a reminder, the Papp B→A is the apparent permeability from the basolateral to the apical side of a cell layer. As a reminder, the efflux ratio is a quotient of directional permeabilities that is used to spot active efflux. The term EC50 denotes the concentration at which the effect is half-maximal. On to `CN(c1ncc(-c2ccc(-c3cn[nH]c3)cc2O)nn1)[C@@H]1C[C@H]2CC[C@H](N2)[C@@H]1F` (single isomer, unassigned) [Compound 1A], for which, in the data set with MDR1, the Papp A→B at 120 min, 5 μM amounted to 3.47 ×10⁻⁶ cm/s; the basolateral-to-apical permeability (Papp B→A) at 120 min, 5 μM is 51.6 ×10⁻⁶ cm/s; the efflux ratio at 120 min, 5 μM was found to be 15. The molecule further gave an EC50 in the data set on SMN protein of 16 to 50 nM. Moreover, the EC50 in the data set with SMN FL is 0.01 to 15 nM. Moreover, in data set [1], the “MDCK-MDR1: % Recov A-B” value was found to be 86% and the “MDCK-MDR1: % Recov B-A” value amounted to 89%.
Take `CN(c1ncc(-c2cc3ccncc3s2)nn1)[C@H]1C[C@@H]2CC[C@@H](N2)[C@H]1F` (single isomer, unassigned) [Compound 8B]: in the data set with MDR1, the Papp A→B at 120 min, 5 μM worked out at 12.9 ×10⁻⁶ cm/s; the Papp B→A at 120 min, 5 μM worked out at 49.6 ×10⁻⁶ cm/s; the efflux ratio at 120 min, 5 μM came out at 4. In the data set on SMN protein, the concentration giving a half-maximal response (EC50) is 501 to 10000 nM. Moreover, in data set [1], the “MDCK-MDR1: % Recov A-B” value amounted to 79% and the “MDCK-MDR1: % Recov B-A” value turned out to be 81%.
`CN(c1ncc(-c2ccc(-c3cnn(C)c3)cc2O)nn1)[C@@H]1C[C@H]2CCC[C@H](N2)[C@@H]1F` (single isomer, unassigned) [Compound 2A]: in the data set with MDR1, the apical-to-basolateral permeability (Papp A→B) at 120 min, 5 μM was determined as 4.48 ×10⁻⁶ cm/s; the apparent permeability from basolateral to apical (Papp B→A) at 120 min, 5 μM amounted to 30.3 ×10⁻⁶ cm/s; the efflux ratio at 120 min, 5 μM came out at 7. In the data set with SMN protein, this molecule had a half-maximal effective concentration (EC50) of 51 to 100 nM. In data set [1], the “MDCK-MDR1: % Recov A-B” value was 81% and the “MDCK-MDR1: % Recov B-A” value is on record as 84%.
As to `CN(c1ncc(-c2ccc(-c3cn[nH]c3)cc2O)nn1)[C@H]1C[C@@H]2CC[C@@H](N2)[C@H]1F` (single isomer, unassigned) [Compound 1B], in the data set on MDR1, the Papp A→B at 120 min, 5 μM stood at 2.95 ×10⁻⁶ cm/s; the apparent permeability from basolateral to apical (Papp B→A) at 120 min, 5 μM amounted to 33.2 ×10⁻⁶ cm/s; the efflux ratio at 120 min, 5 μM is 11. The EC50 in the data set with SMN protein lay within 0.01 to 15 nM. For the same molecule, in the data set with SMN FL, the EC50 lay in the range of 101 to 500 nM. Moreover, in data set [1], the “MDCK-MDR1: % Recov A-B” value is 78% and the “MDCK-MDR1: % Recov B-A” value is given as 90%.
Turning to `CN(c1ncc(-c2ccc(-c3cnn(C)c3)cc2O)nn1)[C@H]1C[C@@H]2CCC[C@@H](N2)[C@H]1F` (single isomer, unassigned) [Compound 2B], in the data set with MDR1, the apparent permeability from apical to basolateral (Papp A→B) at 120 min, 5 μM was 6.89 ×10⁻⁶ cm/s; the Papp B→A at 120 min, 5 μM amounted to 32.9 ×10⁻⁶ cm/s; the efflux ratio at 120 min, 5 μM came to 5. For the same molecule, the EC50 with SMN protein is 16 to 50 nM. Also, in data set [1], the “MDCK-MDR1: % Recov A-B” value amounted to 69% and the “MDCK-MDR1: % Recov B-A” value was 83%.
As to `CN(C)C(=O)c1cc2cc(O)c(-c3cnc(N(C)[C@@H]4C[C@H]5CC[C@H](N5)[C@@H]4F)nn3)cc2o1` (single isomer, unassigned) [Compound 9A], in the data set with MDR1, the apical-to-basolateral permeability (Papp A→B) at 120 min, 5 μM is 2.55 ×10⁻⁶ cm/s; the Papp B→A at 120 min, 5 μM is 61.2 ×10⁻⁶ cm/s; the efflux ratio at 120 min, 5 μM worked out at 24. Also, in data set [1], the “MDCK-MDR1: % Recov A-B” value is listed as 92% and the “MDCK-MDR1: % Recov B-A” value is listed as 100%.
In the same order, the values of `CN(C)C(=O)c1cc2cc(O)c(-c3cnc(N(C)[C@H]4C[C@@H]5CC[C@@H](N5)[C@H]4F)nn3)cc2o1` (single isomer, unassigned) [Compound 9B] are 2.4 ×10⁻⁶ cm/s, 58.5 ×10⁻⁶ cm/s, 24, 88% and 97%.
As for `CN(c1ncc(-c2cc3ccncc3s2)nn1)[C@@H]1C[C@H]2CC[C@H](N2)[C@@H]1F` (single isomer, unassigned) [Compound 8A], in the data set with MDR1, the apparent permeability from apical to basolateral (Papp A→B) at 120 min, 5 μM is 13.5 ×10⁻⁶ cm/s; the apparent permeability from basolateral to apical (Papp B→A) at 120 min, 5 μM came out at 37.3 ×10⁻⁶ cm/s; the efflux ratio at 120 min, 5 μM was found to be 3. The EC50 in the data set on SMN protein fell in the range of 501 to 10000 nM. Also, in data set [1], the “MDCK-MDR1: % Recov A-B” value came to 87% and the “MDCK-MDR1: % Recov B-A” value came out at 93%.

Values taken from patent US12612397B2, “Methods and compositions for modulating splicing” (Skyhawk Therapeutics, Inc., priority 2019, dated 2026).
